Measurements from publication PMC4452637, “Identification of positron emission tomography (PET) tracer candidates by prediction of the target-bound fraction in the brain” (EJNMMI Research, 2014).
Like-named read-outs stand apart in the source and are kept apart here.

Legend:
NET = details: literature value; 76 (Additional file 1); cited from earlier work
D2 [1] = details: PET, cited from earlier work
[2] = High-throughput brain slice method (Vu,brain); details: unbound volume of distribution in brain, measured in rat brain slices, LC-MS/MS (no fu,brain tabulated in Table S1)
Amyloid [3] = target: Amyloid; set-up: method as in ref 12, 13, 14, 15 (Additional file 1); details: literature value; 15 (Additional file 1); cited from earlier work
AchE = details: literature value; ref 18 (Additional file 1); cited from earlier work
[4] = Unbound fraction in brain homogenate (fu,brain); Vu,brain calculated from it with pH-partition model; details: calculated from reported fu,brain and tracer pKa with pH-partition model (tracers with fu,brain tabulated, footnote h of Table S1)
Description: The unbound volume of distribution in the brain (Vu,brain) describing the extent of non-specific partitioning was determined for 31 tracers using a previously described high-throughput brain slice method [11].

[5] = set-up: method as in ref 10 (a number printed in a supplementary file, which may have a reference list of its own: not looked up in the article's list); details: unbound fraction in homogenized brain tissue, reported; cited from earlier work
D2 [6] = target: D2; set-up: method as in ref 22, 31, 62, 82 (Additional file 1); details: literature value; 82 (Additional file 1); cited from earlier work
GABA = target: GABA; set-up: method as in ref 33, 74 (Additional file 1); details: literature value; 74 (Additional file 1); cited from earlier work
KOR = target: KOR; set-up: method as in ref 35 (Additional file 1); details: literature value; ref 35 (Additional file 1); cited from earlier work
NK1 = target: NK1; set-up: method as in ref 36 (Additional file 1); details: literature value; ref 36 (Additional file 1); cited from earlier work
H3 = target: H3; set-up: method as in ref 38 (Additional file 1); details: literature value; ref 38 (Additional file 1); cited from earlier work
SERT = target: SERT; set-up: method as in ref 5, 19, 43, 45, 67 (Additional file 1); details: literature value; 67 (Additional file 1); cited from earlier work
CB1r = target: CB1r; set-up: method as in ref 48 (Additional file 1); details: literature value; ref 48 (Additional file 1); cited from earlier work
DAT [7] = target: DAT; set-up: method as in ref 26, 31, 57 (Additional file 1); details: literature value; 57 (Additional file 1); cited from earlier work
nAChr a4b2 = details: PET, thalamus, ref 3 (Additional file 1), cited from earlier work
Amyloid [8] = details: PET, cortex, 61 (Additional file 1), cited from earlier work
5HT2a = details: PET, temporal cortex, 47 (Additional file 1), cited from earlier work
DAT [9] = details: PET, striatum, 58 (Additional file 1), cited from earlier work
TSPO [10] = target: TSPO; set-up: method as in ref 28, 29, 55 (Additional file 1); details: literature value; 55 (Additional file 1); cited from earlier work
TSPO [11] = details: PET, basal ganglia, 81 (Additional file 1), cited from earlier work
5HT1a = details: PET, hippocampus, 65 (Additional file 1), cited from earlier work
[12] = caudate/striatum, ref 23 (Additional file 1)

Structure (SMILES): CNCCC(Oc1ccccc1OC)c1ccccc1 (racemic) [[^11C]Nisoxetine]
- Kd (NET): 0.73 nM

Structure (SMILES): CCN1CCC[C@H]1CNC(=O)c1c(O)c(Cl)cc(Cl)c1O[11CH3] (racemic) [[^11C]Raclopride]
- BP ND (D2 [1]; [12]): 2.6

Structure (SMILES): Cc1ccc(N2CCN([11CH3])CC2)c2oc(C(=O)Nc3ccc(N4CCOCC4)cc3)cc(=O)c12 [[^11C]AZ10419369]
- V u,brain [2]: 30 mL/g brain

Structure (SMILES): CNc1ccc(-c2nc3ccc(O)cc3s2)cn1 [[^11C]AZD2184]
- Kd (Amyloid [3]): 4.9 nM

Structure (SMILES): [11CH3]Nc1ccc(-c2nc3ccc(O)cc3s2)cn1 [[^11C]AZD2184]
- V u,brain [2]: 33 mL/g brain

Structure (SMILES): CN1C(=O)Cc2cc3c(CCC4CCN(Cc5ccccc5)CC4)noc3cc21 [[^11C]CP-126998]
- Kd (AchE): 0.48 nM

Structure (SMILES): [11CH3]N1C(=O)Cc2cc3c(CCC4CCN(Cc5ccccc5)CC4)noc3cc21 [[^11C]CP-126998]
- V u,brain [4]: 41 mL/g brain
- fu,brain [5]: 0.07

Structure (SMILES): CN([11CH3])Cc1ccccc1Sc1ccc(C#N)cc1N [[^11C]DASB]
- V u,brain [4]: 31 mL/g brain
- fu,brain [5]: 0.09

Structure (SMILES): CCN1CCC[C@H]1CNC(=O)c1cc(Br)cc(OC)c1OC [[^11C]FLB457]
- Kd (D2 [6]): 0.02 nM

Structure (SMILES): CCN1CCC[C@H]1CNC(=O)c1cc(Br)cc(OC)c1O[11CH3] [[^11C]FLB457]
- V u,brain [4]: 26 mL/g brain
- fu,brain [5]: 0.11

Structure (SMILES): CCOC(=O)c1ncn2c1CN(C)C(=O)c1cc(F)ccc1-2 [[^11C]Flumazenil]
- Kd (GABA): 0.7 nM

Structure (SMILES): COC(=O)N1CCN(C(=O)Cc2ccc(Cl)c(Cl)c2)[C@H](CN2CCCC2)C1 [[^11C]GR103545]
- Kd (KOR): 0.048 nM

Structure (SMILES): [11CH3]OC(=O)N1CCN(C(=O)Cc2ccc(Cl)c(Cl)c2)[C@H](CN2CCCC2)C1 [[^11C]GR103545]
- V u,brain [4]: 41 mL/g brain
- fu,brain [5]: 0.07

Structure (SMILES): COc1ccc(-n2nnnc2C(F)(F)F)cc1CN[C@H]1CCCN[C@H]1c1ccccc1 [[^11C]GR205171]
- V u,brain [4]: 57 mL/g brain
- fu,brain [5]: 0.05
- Kd (NK1): 0.016 nM

Structure (SMILES): CNC(=O)c1ccc(Oc2ccc3c(c2)CCN(C2CCC2)CC3)nc1 [[^11C]GSK189254A]
- Kd (H3): 0.08 nM

Structure (SMILES): [11CH3]NC(=O)c1ccc(Oc2ccc3c(c2)CCN(C2CCC2)CC3)nc1 [[^11C]GSK189254A]
- fu,brain [5]: 0.24

Structure (SMILES): Cc1nccc2c1[nH]c1cc(O[11CH3])ccc12 [[^11C]Harmine]
- V u,brain [4]: 25 mL/g brain
- fu,brain [5]: 0.04

Structure (SMILES): Cc1ccc(Sc2ccccc2CN(C)C)c(N)c1 [[^11C]MADAM]
- Kd (SERT): 0.06 nM

Structure (SMILES): Cc1ccc(Sc2ccccc2CN(C)[11CH3])c(N)c1 [[^11C]MADAM]
- V u,brain [2]: 90 mL/g brain

Structure (SMILES): COc1c(O[11CH3])cccc1[C@H](O)C1CCN(CCc2ccc(F)cc2)CC1 [[^11C]MDL100907]
- V u,brain [4]: 17 mL/g brain

Structure (SMILES): CSc1ccc([C@H]2CN3CCC[C@H]3c3ccccc32)cc1 [[^11C]McN5652]
- Kd (SERT): 0.2 nM

Structure (SMILES): [11CH3]Sc1ccc([C@H]2CN3CCC[C@H]3c3ccccc32)cc1 [[^11C]McN5652]
- V u,brain [2]: 238 mL/g brain

Structure (SMILES): COc1ccccc1O[C@@H](c1ccccc1)[C@H]1CNCCO1 [[^11C]MeNER]
- Kd (NET): 2.5 nM

Structure (SMILES): [11CH3]Oc1ccccc1O[C@@H](c1ccccc1)[C@H]1CNCCO1 [[^11C]MeNER]
- V u,brain [4]: 31 mL/g brain
- fu,brain [5]: 0.07

Structure (SMILES): COc1cccc([C@H]2C[C@@H](N[C@H](C)c3ccccc3)C(=O)N2c2ccc(C(F)(F)F)cc2)c1 [[^11C]MePPEP]
- Kd (CB1r): 0.1 nM

Structure (SMILES): C[C@@H](N[C@@H]1C[C@H](c2cccc(O[11CH3])c2)N(c2ccc(C(F)(F)F)cc2)C1=O)c1ccccc1 [[^11C]MePPEP]
- V u,brain [2]: 296 mL/g brain

Structure (SMILES): [11CH3]N1CCc2cc(Cl)c(O)cc2[C@@H](c2cccc3ccoc23)C1 [[^11C]NNC112]
- V u,brain [2]: 70 mL/g brain

Structure (SMILES): COC(=O)C1C(c2ccc(C)cc2)CC2CCC1N2CC=CI (stereo not shown) [[^11C]PE2I]
- Kd (DAT [7]): 4.9 nM

Structure (SMILES): Cc1ccc(C2CC3CCC(C2C(=O)O[11CH3])N3CC=CI)cc1 (stereo not shown) [[^11C]PE2I]
- V u,brain [2]: 39 mL/g brain

Structure (SMILES): [11CH3]Nc1ccc(-c2nc3ccc(O)cc3s2)cc1 [[^11C]PIB]
- fu,brain [5]: 0.004

Structure (SMILES): CCC(C)N(C)C(=O)c1cc2ccccc2c(-c2ccccc2Cl)n1 (stereo not shown) [[^11C]PK11195]
- V u,brain [4]: 59 mL/g brain
- fu,brain [5]: 0.01

Structure (SMILES): CCN1CCC[C@H]1CNC(=O)c1c(OC)ccc(Br)c1OC [[^11C]Remoxipride]
- Kd (D2 [6]): 270 nM

Structure (SMILES): [11CH3]N1CCc2cc(Cl)c(O)cc2[C@@H](c2ccccc2)C1 [[^11C]SCH23390]
- V u,brain [4]: 32 mL/g brain
- fu,brain [5]: 0.06

Structure (SMILES): COc1ccccc1N1CCN(CCN(c2ccccn2)[11C](=O)C2CCCCC2)CC1 [[^11C]WAY100635]
- V u,brain [2]: 14 mL/g brain

Structure (SMILES): [18F]c1ncccc1OC[C@@H]1CCN1 [[^18 F]2-FA-85380]
- BP ND (nAChr a4b2): 1.8
- BP ND (nAChr a4b2; listed as [^18F]2-FA-85380): 1.8[3]

Structure (SMILES): CNc1ccc(-c2cc3cc(O)ccc3o2)c(F)n1 [[^18 F]AZD4694]
- Kd (Amyloid [3]): 2.3 nM

Structure (SMILES): CNc1ccc(-c2cc3cc(O)ccc3o2)c([18F])n1 [[^18 F]AZD4694]
- BP ND (Amyloid [8]): 1.2
- BP ND (Amyloid [8]; listed as [^11C]AZD4694): 1.2[16]
- V u,brain [2]: 205 mL/g brain

Structure (SMILES): O=C(c1ccc([18F])cc1)C1CCN(CCn2c(=S)[nH]c3ccccc3c2=O)CC1 [[^18 F]Altanserin]
- BP ND (5HT2a): 1.06
- BP ND (5HT2a; listed as [^18F]Altanserin): 1.06[8]
- V u,brain [4]: 122 mL/g brain
- fu,brain [5]: 0.02

Structure (SMILES): Cc1ccc([C@H]2C[C@@H]3CC[C@H]([C@H]2C(=O)OCCF)N3C/C=C/I)cc1 [[^18 F]FE-PE2I]
- Kd (DAT [7]): 12 nM

Structure (SMILES): Cc1ccc([C@H]2C[C@@H]3CC[C@H]([C@H]2C(=O)OCC[18F])N3C/C=C/I)cc1 [[^18 F]FE-PE2I]
- V u,brain [2]: 62 mL/g brain
- BP ND (DAT [9]): 4.1
- BP ND (DAT [9]; listed as [^11C]FE-PE2I): 4.1[27]

Structure (SMILES): CC(=O)N(Cc1ccccc1OCCF)c1cnccc1Oc1ccccc1 [[^18 F]FEPPA]
- Kd (TSPO [10]): 0.07 nM

Structure (SMILES): CC(=O)N(Cc1ccccc1OCC[18F])c1cnccc1Oc1ccccc1 [[^18 F]FEPPA]
- BP ND (TSPO [11]): 4.4
- BP ND (TSPO [11]; listed as [^18F]FEPPA): 4.4[30]
- V u,brain [4]: 15 mL/g brain
- fu,brain [5]: 0.07

Structure (SMILES): COC(=O)[C@H]1[C@@H](c2ccc(I)cc2)C[C@@H]2CC[C@H]1N2CCCF [[^18 F]FP-CIT]
- Kd (DAT [7]): 33 nM

Structure (SMILES): COC(=O)[C@H]1[C@@H](c2ccc(I)cc2)C[C@@H]2CC[C@H]1N2CCC[18F] [[^18 F]FP-CIT]
- V u,brain [2]: 36 mL/g brain
- BP ND (DAT [9]): 1.0
- BP ND (DAT [9]; listed as [^18F]FP-CIT): 1[32]

Structure (SMILES): C=CCN1CCC[C@H]1CNC(=O)c1cc(CCCF)cc(OC)c1OC [[^18 F]Fallypride]
- Kd (D2 [6]): 0.03 nM

Structure (SMILES): C=CCN1CCC[C@H]1CNC(=O)c1cc(CCC[18F])cc(OC)c1OC [[^18 F]Fallypride]
- BP ND (D2 [1]; [12]): 22.2
- BP ND (D2 [1]; caudate/striatum, ref 23 (Additional file 1), listed as [^18F]Fallypride): 22.2[23]
- BP ND (D2 [1]; thalamus, 32 (Additional file 1)): 2.11
- BP ND (D2 [1]; thalamus, 32 (Additional file 1), listed as [^18F]Fallypride): 2.11[23]
- V u,brain [4]: 18 mL/g brain
- fu,brain [5]: 0.15

Structure (SMILES): COc1ccccc1N1CCN(CCN(C(=O)c2ccc([18F])cc2)c2ccccn2)CC1 [[^18 F]MPPF]
- V u,brain [4]: 14 mL/g brain
- fu,brain [5]: 0.1
- BP ND (5HT1a): 1.6
- BP ND (5HT1a; listed as [^18F]MPPF): 1.6[51]

Structure (SMILES): O=C(CCCN1CCC2(CC1)C(=O)NCN2c1ccccc1)c1ccc([18F])cc1 [[^18 F]Spiperone]
- V u,brain [2]: 147 mL/g brain
